For 30 compounds, viability results are on record in publication PMC12040169 (PLOS Biology, 2025).

The first data set in a line: in vitro. The note with it: human, hela cells, % viability.
As a reminder, the viability is a read-out of living cells in per cent, often relative to untreated cells. `CCCC12CN3CC(CCC)(CN(C1)C3C(O)C(O)C(O)CO)C2=O` (stereo not drawn) [CBK265529]: the viability at 28.5 h, 10 µM came to 88.3%.
Still for that read-out and setting: next, `CCCC12CN3CC(CCC)(CN(C1)C3c1ccc(O)c(OC)c1)C2=O` (stereo not drawn) [CBK265531]: 89%; `COc1cc(/N=C(\N)Nc2nc(=O)cc(CSc3ccc(C)cc3)[nH]2)cc(OC)c1` [CBK265532]: 83.4%; `CC1(CC(=O)Nc2ccccc2)NC(=S)N(c2ccccc2)N1` (stereo not drawn) [CBK265534]: 105%.
For the compound `CCOC(=O)c1c(NC(=O)CN2CCN(c3ccc(F)cc3)CC2)sc2c1CCCC2` [CBK265536], the viability at 28.5 h, 10 µM is 88.3%.
Take `O=C1N(CN2CCN(C(c3ccccc3)c3ccccc3)CC2)c2ccccc2C12OCCCO2` [CBK265538]: the viability at 28.5 h, 10 µM was found to be 85.6%.
Same read-out and setting: next, `O=c1ccc(O)nn1CN1CCN(Cc2ccccc2)CC1` [CBK265539]: 91.5%.
For the compound `COc1cccc(C(=O)Oc2ccc3c(=O)c(-c4nc5ccccc5s4)c(C)oc3c2)c1` [CBK265540], the viability at 28.5 h, 10 µM was 103%.
As for `NC(=O)c1c(NC(=S)NC(=O)c2ccccc2Br)sc2c1CCC2` [CBK265543], the viability at 28.5 h, 10 µM was found to be 89.3%.
Same read-out and setting: the figure for `FC(F)(F)C1(NC2(C(Cl)(Cl)Cl)Oc3ccccc3O2)Oc2ccccc2O1` [CBK265544] is 90.5%; for `COc1ccc(/C=C2/SC(=O)N(CCNC3=NS(=O)(=O)c4ccccc43)C2=O)cc1` [CBK265545] it is 83.4%; for `CCC12CN3CC(CC)(CN(C1)C3c1c(C)[nH]c3ccccc13)C2=O` (stereo not drawn) [CBK265547] it is 89.4%.
For the compound `COc1ccc(S(=O)(=O)N2CCOCC2)cc1C(=O)Nc1ccc2c(c1)OCO2` [CBK265548], the viability at 28.5 h, 10 µM was determined as 102%.
Still for that read-out and setting: next, `O=C1N/C(=N/c2cccc(O)c2)S/C1=C1\C(=O)Nc2ccccc21` [CBK265549]: 99.6%.
As for `O=C(NC(Cc1ccccc1)N1C(=O)c2ccccc2C1=O)N1CCCc2ccccc21` (stereo not drawn) [CBK265551], the viability at 28.5 h, 10 µM was 111%.
`O=C(O)C1CC(=O)N(CCc2ccccc2)/C(=N/CCc2ccccc2)S1` (stereo not drawn) [CBK265558]: the viability at 28.5 h, 10 µM was 89.2%.
For the compound `Cc1nnc(SCc2ccc(CSc3nnc(C)n3N)cc2)n1N` [CBK265561], the viability at 28.5 h, 10 µM was found to be 106%.
For `Cc1ccc(NC(=O)COC(=O)CCc2c[nH]c(O)n2)cc1` [CBK265562], the viability at 28.5 h, 10 µM was found to be 89.9%.
Regarding `Cc1ccc(NC(=O)CCSc2nnc3ccccn23)cc1` [CBK265563], the viability at 28.5 h, 10 µM was 93.7%.
Turning to `COc1ccc(CCN2C(=O)/C(=C\c3c(NCCO)nc4c(C)cccn4c3=O)SC2=S)cc1` [CBK265566], the viability at 28.5 h, 10 µM stood at 79.9%.
As to `Cc1cccc(-n2ncc3c2ncn2c(COc4ccccc4C)nnc32)c1` [CBK265567], the viability at 28.5 h, 10 µM amounted to 86.2%.
As to `CC(C)(C)NS(=O)(=O)c1cccc2nonc12` [CBK265569], the viability at 28.5 h, 10 µM turned out to be 115%.
As for `O=C(O)CN1C(=O)/C(=C2/C(=O)N(Cc3ccccc3Cl)c3ccccc32)SC1=S` [CBK265570], the viability at 28.5 h, 10 µM amounted to 95.6%.
For `CC1CCN(S(=O)(=O)c2ccc(NC(=O)CCN3C(=O)c4ccccc4C3=O)cc2)CC1` [CBK265572], the viability at 28.5 h, 10 µM amounted to 98.8%.
In the case of `CCOC(=O)c1sc(NCCOc2cccc(C)c2)nc1C` [CBK265574], the viability at 28.5 h, 10 µM was 85.2%.
In the case of `CCOC(=O)CNC(=O)C1Cc2ccccc2CN1S(=O)(=O)c1cccs1` (stereo not drawn) [CBK265575], the viability at 28.5 h, 10 µM came out at 103%.
As to `O=C(CN1C(=O)c2ccc([N+](=O)[O-])cc2C1=O)Nc1cccc2c1C(=O)N(c1ccccc1)C2=O` [CBK265576], the viability at 28.5 h, 10 µM turned out to be 84.7%.
As for `CCOc1ccc(-n2c(N)c(C(=O)NCc3ccco3)sc2=S)cc1` [CBK265578], the viability at 28.5 h, 10 µM was 96.3%.

The same data set, now with this note: human, hela cells, % viability, bulk resorufin, single well.
Turning to `CCOc1cccc(N2C(=O)NC(=O)/C(=C/NCCc3c[nH]c4ccccc34)C2=O)c1` [CBK265541], the viability at 28.5 h, 10 µM is 106%.
`O=C1NC(=S)N(Cc2ccco2)C(=O)/C1=C\c1cn(CCOc2ccc(F)cc2)c2ccccc12` [CBK265573]: the viability at 28.5 h, 10 µM worked out at 80.9%.
